Reference: patent US20200024278A1, “COMPOSITION COMPRISING ANTIBIOTIC COMPOUND AND AN HETEROCYCLIC COMPOUND AND THEIR USE IN PREVENTING OR TREATING BACTERIAL INFECTIONS” (MUTABILIS, priority 2016, published 2020)

What was measured:
Assay in all cases: MIC, broth microdilution (CLSI), substance alone or ATB combined with compound at 4 or 8 μg/mL
[1] = test system: ECO 190317; assay type: cell-based, E. coli; conditions: Escherichia coli; substance alone; ECO 190317; read-out: MIC
Method in brief: (§1)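 Broth microdilution; ca-MHB; 5·10^5 CFU/mL; 35° C, 16-20 h; compound alone or fixed 4/8 μg/mL with antibiotic series; endpoint = no visible growth.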

[2] = test system: ECO UFR39; assay type: cell-based, E. coli; conditions: Escherichia coli; substance alone; ECO UFR39; read-out: MIC
Method in brief: as §1

[3] = test system: PAE 105250; assay type: cell-based, P. aeruginosa; conditions: PAE 105250; for MIC ATB combined with compound: compound @4 μg/ml
Method in brief: as §1

[4] = test system: PAE UFR90; assay type: cell-based, P. aeruginosa; conditions: PAE UFR90; for MIC ATB combined with compound: compound @4 μg/ml
Method in brief: as §1

[5] = test system: PAE UFR48; assay type: cell-based, P. aeruginosa; conditions: PAE UFR48; for MIC ATB combined with compound: compound @4 μg/ml
Method in brief: as §1

[6] = test system: SPN 49619; assay type: cell-based, S. pneumoniae; conditions: SPN 49619; for MIC ATB combined with compound: compound @4 μg/ml
Method in brief: as §1

[7] = test system: KPN UFR42; assay type: cell-based, K. pneumoniae; conditions: Klebsiella pneumoniae; substance alone; KPN UFR42; read-out: MIC
Method in brief: as §1

[8] = test system: KPN BAA-1898; assay type: cell-based, K. pneumoniae; conditions: Klebsiella pneumoniae, BAA1898; substance alone; KPN BAA-1898; read-out: MIC
Method in brief: as §1

[9] = test system: ABA 19606; assay type: cell-based, A. baumannii; conditions: Acinetobacter baumannii, substance alone, read-out: MIC
Procedure: (§2) Compounds of the present invention were assessed against genotyped bacterial strains alone or in combination with an antibacterial. In the assays, MICs of said compounds or combination of antibiotics with fixed concentrations of said compounds (4 or 8 μg/mL) were determined by the broth microdilution method according to the Clinical Laboratory Standards Institute (CLSI-M7-A7). Briefly, compounds alone according to the invention were prepared in DMSO and spotted (2 μL each) on sterile polystyrene plates (Corning, 3788). Combinations of compounds and antibiotics dilutions were prepared in DMSO and spotted (1 μL each) on sterile polystyrene plates (Corning, 3788). Log phase bacterial suspensions were adjusted to a final density of 5·10^5 CFU/mL in cation-adjusted Mueller-Hinton broth (ca-MHB; Becton-Dickinson and Company) and added to each well (98 μL). Assays including Fosfomycin were supplemented with 25 μg/ml of Glucose-6-phosphate. Microplates were incubated for 16-20 h at 35° C. in ambient air. The MIC of the compounds was defined as the lowest concentration of said compounds that prevented bacterial growth as read by visual inspection. The MIC of ATB at each compound concentration was defined as the lowest concentration of ATB that prevented bacterial growth as read by visual inspection.

[10] = test system: ABA UFR160; assay type: cell-based, A. baumannii; conditions: Acinetobacter baumannii, substance alone, read-out: MIC
Procedure: as §2

[11] = test system: ECL P99; assay type: cell-based, E. cloacae; conditions: Enterobacter cloacae; substance alone; ECL P99; read-out: MIC
Method in brief: as §1

[12] = test system: SAU 29213; assay type: cell-based, S. aureus; conditions: for MIC ATB combined with compound: compound @4 μg/ml, SAU 29213
Method in brief: as §1

[13] = Pseudomonas aeruginosa, substance alone, read-out: MIC

MIC [1]: 4 µg/mL
MIC [2]: 4 µg/mL
MIC ATB combined with compound ([3]; ATB ATM): 8 µg/mL
MIC ATB combined with compound ([3]; ATB FEP): 4 µg/mL
MIC ATB combined with compound ([3]; ATB FOS): >128 µg/mL
MIC ATB combined with compound ([3]; ATB MEM): 2 µg/mL
MIC ATB combined with compound ([3]; ATB PIP): >32 µg/mL
MIC [3, 13]: > 32 µg/mL
MIC ATB combined with compound ([4]; ATB ATM): 16 µg/mL
MIC ATB combined with compound ([4]; ATB FEP): 8 µg/mL
MIC ATB combined with compound ([4]; ATB FOS): 4 µg/mL
MIC ATB combined with compound ([4]; ATB MEM): 1 µg/mL
MIC ATB combined with compound ([4]; ATB PIP): >32 µg/mL
MIC [4, 13]: > 128 µg/mL
MIC ATB combined with compound ([5]; ATB ATM): 8 µg/mL
MIC ATB combined with compound ([5]; ATB FEP): 32 µg/mL
MIC ATB combined with compound ([5]; ATB FOS): 16 µg/mL
MIC ATB combined with compound ([5]; ATB MEM): 4 µg/mL
MIC ATB combined with compound ([5]; ATB PIP): 128 µg/mL
MIC [5, 13]: 64 µg/mL
MIC ATB combined with compound ([6]; ATB ATM): >32 µg/mL
MIC ATB combined with compound ([6]; ATB FEP): 0.063 µg/mL
MIC ATB combined with compound ([6]; ATB FOS): 16 µg/mL
MIC ATB combined with compound ([6]; ATB MEM): 0.063 µg/mL
MIC ATB combined with compound ([6]; ATB PIP): 0.5 µg/mL
MIC ([6]; Streptococcus pneumoniae, substance alone, read-out: MIC): > 32 µg/mL
MIC [7]: > 32 µg/mL
MIC [8]: > 32 µg/mL
MIC [9]: 16 µg/mL
MIC [10]: > 32 µg/mL
MIC [11]: 16 µg/mL
MIC ATB combined with compound ([12]; ATB ATM): >32 µg/mL
MIC ATB combined with compound ([12]; ATB FEP): 4 µg/mL
MIC ATB combined with compound ([12]; ATB FOS): 0.5 µg/mL
MIC ATB combined with compound ([12]; ATB MEM): 0.125 µg/mL
MIC ATB combined with compound ([12]; ATB PIP): 1 µg/mL
MIC ([12]; Staphylococcus aureus, substance alone, SAU 29213 (MSSA 29213), read-out: MIC): > 32 µg/mL
Structure (SMILES): NCCON=C1C[C@@H](C(N)=O)N2C[C@@H]1N(OS(=O)(=O)[O-])C2=O.[Na+] [Example 2, sodium and 2,2,2-trifluoroacetate [(2S,5S)-4-(2-ammonium-ethoxyimino)-2-carbamoyl-7-oxo-1,6-diazabicyclo[3.2.1]octan-6-yl] sulfate]
